From PubChem BioAssay (NCI)
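Dose response: 5 concentrations. Exposure: 48 h. Format: 96-well plates. Endpoint: linear interpolation; highest concentration if not reached. The concentration for 50% growth inhibition is given as GI50. Definition used: TGI = concentration required for complete inhibition of growth.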

How the values were obtained:
Test in all cases: growth of human tumour cells (NCI), 48 h
NCI/ADR-RES ovarian = tested on: NCI/ADR-RES ovarian
OVCAR-4 ovarian = tested on: OVCAR-4 ovarian
HCC-2998 colon = tested on: HCC-2998 colon
A549 NSCLC = tested on: A549 NSCLC
MALME-3M melanoma = tested on: MALME-3M melanoma
RXF 393 renal = tested on: RXF 393 renal
SK-MEL-5 melanoma = tested on: SK-MEL-5 melanoma
OVCAR-3 ovarian = tested on: OVCAR-3 ovarian
NCI-H23 lung = tested on: NCI-H23 lung
EKVX NSCLC = tested on: EKVX NSCLC

SMILES	TGI (NCI/ADR-RES ovarian)	TGI (OVCAR-4 ovarian)	TGI (HCC-2998 colon)	TGI (A549 NSCLC)	TGI (MALME-3M melanoma)	TGI (RXF 393 renal)	TGI (SK-MEL-5 melanoma)	TGI (OVCAR-3 ovarian)	TGI (NCI-H23 lung)	TGI (EKVX NSCLC)	GI50 (NCI/ADR-RES ovarian)	GI50 (A549 NSCLC)	GI50 (SK-MEL-5 melanoma)	GI50 (OVCAR-3 ovarian)	GI50 (NCI-H23 lung)	GI50 (EKVX NSCLC)	GI50 (OVCAR-4 ovarian)	GI50 (HCC-2998 colon)	GI50 (MALME-3M melanoma)	GI50 (RXF 393 renal)
CCOC(=O)c1cc2cc([N+](=O)[O-])ccc2oc1=O	> 100 µM	> 100 µM	> 100 µM	> 100 µM	> 100 µM	> 100 µM	> 100 µM	> 100 µM	> 100 µM	> 100 µM										
CN(C)c1ccc(/C=N/Nc2ccc(-c3nc4ccccc4[nH]3)cc2)cc1	32 µM			27.1 µM			9.92 µM	> 50 µM	45.5 µM	> 50 µM	10.7 µM	9.33 µM	2.03 µM	31.7 µM	13.8 µM	17.6 µM				
N#CC(C#N)=C/C=C/c1cccc([N+](=O)[O-])c1	5.04 µM	13.9 µM	3.05 µM	16.8 µM	8.87 µM	2.06 µM	2.66 µM	4.36 µM	4.26 µM	27.8 µM	0.652 µM	2.29 µM	1.35 µM	0.533 µM	1.59 µM	3.47 µM	3.09 µM	1.68 µM	1.69 µM	0.8 µM
COc1ccccc1OCC(O)CO (stereo not given)	> 100 µM	> 100 µM	> 100 µM	> 100 µM	> 100 µM	> 100 µM	> 100 µM	> 100 µM	> 100 µM	> 100 µM	> 100 µM	> 100 µM	> 100 µM	> 100 µM	> 100 µM	> 100 µM	> 100 µM	> 100 µM	> 100 µM	> 100 µM
CC(=O)OCC1OC(O[C@@H]2C[C@H]3C(C)(C)[C@H](OC(C)=O)CC[C@]3(C)[C@H]3CC[C@@H]4[C@]5(CC[C@@]4(C)[C@@]32C)O[C@@H]([C@H](O)C(C)(C)O)C[C@@H]5C)C(O)C(O)C1O (stereo not given in full)	31.1 µM	16.4 µM	15.9 µM	18.3 µM	22.4 µM	16.1 µM	22.5 µM	20.5 µM	26.9 µM	28.5 µM	16.4 µM	5.1 µM	10.7 µM	7.05 µM	12.9 µM	9.52 µM	3.35 µM	3.64 µM	10.3 µM	
NC(=NC1C2CC3CC(C2)CC1C3)Nc1ccc(I)cc1 (stereo not given)	17.1 µM	14 µM	3.61 µM	14.2 µM	5.36 µM	13.5 µM	2.95 µM	15 µM	10.7 µM	14.3 µM	4.59 µM	3.44 µM	1.57 µM	3.97 µM	2.77 µM	3.43 µM	3.26 µM	1.77 µM	2.09 µM	3.1 µM
C=C(C)[C@@H]1CC[C@]2(C#N)CC[C@]3(C)[C@H](CC[C@@H]4[C@@]5(C)CCCNC(C)(C)[C@@H]5CC[C@]43C)[C@@H]12	3.63 µM	4.44 µM	3.24 µM	3.77 µM	3.2 µM	3.16 µM	3.08 µM	3.38 µM	10.9 µM	3.83 µM	1.89 µM	1.94 µM	1.71 µM	1.75 µM	3.32 µM	1.79 µM	2.16 µM	1.8 µM	1.61 µM	1.7 µM
COc1cc(SC)ccc1C(=O)N1CCCC(C)C1 (stereo not given)	> 100 µM	> 100 µM	> 100 µM	> 100 µM	> 100 µM		> 100 µM	> 100 µM	> 100 µM		70.6 µM	> 100 µM	33.3 µM	> 100 µM	70 µM		58.6 µM	> 100 µM	> 100 µM	
C=C1C(=O)O[C@H]2[C@H](OC(C)=O)[C@@H](C)CCC/C(C)=C/CC[C@]3(CO3)[C@H](O)C[C@@H]12	35.2 µM	21.9 µM	28.4 µM	35 µM	12.3 µM	11.7 µM	27.4 µM	5.69 µM	18.3 µM	17.3 µM	5.92 µM	16.9 µM	13.4 µM	2.36 µM	4.87 µM	4.52 µM	6.89 µM	15.2 µM	2.69 µM	3.16 µM
ClCc1ccc(Cn2cnc3ncnc(Cl)c32)cc1	4.68 µM		2.87 µM	4.13 µM		4.14 µM	12.1 µM	3.39 µM	30.6 µM	4.45 µM	1.81 µM	1.81 µM	2.82 µM	1.8 µM	16 µM	2.25 µM		1.42 µM		1.67 µM
CC(C)(C)c1ccc(C(O)(c2ccc(C(C)(C)C)cc2)c2ccc(C(C)(C)C)cc2)cc1	> 100 µM	> 100 µM	> 100 µM	> 100 µM	> 100 µM		> 100 µM	> 100 µM	> 100 µM	> 100 µM										
CCOc1ccc(N2C(N)=NC(N)=NC2(C)C)cc1	> 100 µM	> 100 µM	> 100 µM	> 100 µM	> 100 µM	> 100 µM	> 100 µM	> 100 µM	> 100 µM		> 100 µM	50.1 µM	40.8 µM	> 100 µM	58.8 µM		> 100 µM	> 100 µM	56.4 µM	> 100 µM
C/C(=N\n1c(N)c(C#N)c(-c2ccc(Cl)cc2)c(C#N)c1=O)c1cccnc1	> 100 µM	> 100 µM	> 100 µM	> 100 µM	> 100 µM		> 100 µM	> 100 µM	> 100 µM	> 100 µM	> 100 µM	> 100 µM	> 100 µM	> 100 µM	> 100 µM	> 100 µM	> 100 µM	> 100 µM	> 100 µM	
COCCOC(=O)CCn1cc(F)c(=O)[nH]c1=O	> 150 µg/mL	> 150 µg/mL		> 150 µg/mL	> 150 µg/mL	> 150 µg/mL	> 150 µg/mL	> 150 µg/mL	> 150 µg/mL	> 150 µg/mL	46.4 µg/mL	1.79 µg/mL	20.4 µg/mL	5.79 µg/mL	17.2 µg/mL	57.8 µg/mL	20.4 µg/mL		> 150 µg/mL	13.8 µg/mL
O=C1CCC(c2ccccc2)(c2ccccc2)CC1	> 100 µM	> 100 µM		> 100 µM	> 100 µM	> 100 µM	> 100 µM	> 100 µM	> 100 µM	> 100 µM										
CN1C=CN(Cc2ccc(-c3ccccn3)nc2)[CH-]1.CN1C=CN(Cc2ccc(-c3ccccn3)nc2)[CH-]1.[Au+3]	> 100 µM	14.1 µM	> 42.7 µM	> 100 µM	10.5 µM	17.8 µM	17.8 µM	13.8 µM	> 100 µM		> 70.8 µM	8.69 µM	1.36 µM	2.41 µM	5.37 µM		0.769 µM	5.47 µM	2.21 µM	1.88 µM
O=C(Nc1ccc(-c2nc3ccc(NC(=O)c4ccc(Cl)cc4)cc3[nH]2)cc1)c1ccc(Cl)cc1	64.4 µM	3.47 µM	21.4 µM	5.08 µM	11.4 µM	1.93 µM	14.4 µM	11.4 µM	16.4 µM		17 µM	2.05 µM	3.53 µM	3.31 µM	4.63 µM		1.76 µM	7.47 µM	3.79 µM	0.0186 µM
O=C1CCCC2COc3ccc(O)c1c32 (stereo not given)		> 100 µM	> 100 µM	> 100 µM	> 100 µM	> 100 µM	> 100 µM	> 100 µM	> 100 µM	> 100 µM										
COC(=N)/C(=C1\OC(N)=C(c2ccc(Cl)cc2)C1=O)c1ccc(Cl)cc1		> 100 µM	> 100 µM	> 100 µM	> 100 µM	> 100 µM	> 100 µM	> 100 µM	> 100 µM	> 100 µM										
Cc1cc(C(=O)NCCN(C)C)c2nc3ccccc3nc2c1		19.5 µM	35.2 µM	> 58.7 µM	13.8 µM	19.7 µM	> 41.6 µM	40.4 µM	23.6 µM	43.5 µM										
Cc1ccc(NC(=O)CCC(=O)C(C#N)c2ccc(Cl)cc2)cc1C (stereo not given)		> 100 µM	> 100 µM	> 100 µM	> 100 µM	> 100 µM	> 100 µM	> 100 µM	> 100 µM	> 100 µM										
CCn1c(-c2cc3ccccc3cc2OC(=O)c2ccccc2)n[nH]c1=S	> 50 µM	> 50 µM		> 50 µM	> 50 µM	> 50 µM	> 50 µM	> 50 µM	> 50 µM	> 50 µM	23.2 µM	> 50 µM	19.8 µM	3.19 µM	22.5 µM	10.7 µM	> 50 µM		> 50 µM	> 50 µM
